Results as given in patent US20120245161A1 (SANOFI, priority 2009, published 2012).
Counter-ions that a name gives are not always drawn.

What follows are molecules tested against T1, recombinant human beta tryptase (Homo sapiens, UniProt P20231) (assay: beta-Tryptase inhibition, chromogenic enzyme assay (substrate S2366, read at 405 nm)). Conditions: Ki calculated from IC50: Ki=IC50/(1+[Substrate]/Km); 0.5 mM substrate, room temperature; read-out: Tryptase Ki.
T1 construct: made in house; host or cells: yeast cells
T1 sequence (P20231 31-275): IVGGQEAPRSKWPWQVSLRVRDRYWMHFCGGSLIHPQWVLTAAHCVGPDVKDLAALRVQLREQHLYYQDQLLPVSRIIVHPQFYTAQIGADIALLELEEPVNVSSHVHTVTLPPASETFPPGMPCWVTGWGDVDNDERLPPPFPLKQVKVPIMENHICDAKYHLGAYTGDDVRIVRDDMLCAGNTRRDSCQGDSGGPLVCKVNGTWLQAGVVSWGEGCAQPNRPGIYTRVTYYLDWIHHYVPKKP
Assay type: biochemical
Description: Inhibition of this catalytic activity may be measured by the in vitro enzyme assay and the cellular assay.
Tryptase inhibition activity is confirmed using either isolated human lung tryptase or recombinant human beta tryptase expressed in yeast cells. Essentially equivalent results are obtained using isolated native enzyme or the expressed enzyme. The assay procedure employs a 96 well microplate (Costar 3590) using L-pyroglutamyl-L-prolyl-L-arginine-para-nitroanilide (S2366: Quadratech) as substrate (essentially as described by McEuen et. al. Biochem Pharm, 1996, 52, pages 331-340). Assays are performed at room temperature using 0.5 mM substrate (2×Km) and the microplate is read on a microplate reader (Beckman Biomek Plate reader) at 405 nm wavelength.
Materials and Methods for Tryptase primary screen (Chromogenic assay)
S2366 (Stock solutions of 2.5 mM).
Purified recombinant beta Tryptase Stocks of 310 μg/mL. Protocol (Single point determination) • Add 60 μL of diluted substrate (final concentration of 500 μM in assay buffer) to each well • Add compound in duplicates, final concentration of 20 volume 20 • Add enzyme at a final concentration of 50 ng/mL in a volume of 20 • Total volume for each well is 100 • Agitate briefly to mix and incubate at room temp in the dark for 30 minutes • Read absorbencies at […] Each plate has the following controls: • Totals: 60 μL of substrate, 20 μL of buffer (with 0.2% final concentration of DMSO), • 20 μL of enzyme Non-specific: 60 μL of substrate, 40 μL of buffer (with 0.2% DMSO) Totals: 60 μL of substrate, 20 μL of buffer (No DMSO), 20 μL of enzyme Non-specific: 60 μL of substrate, 40 μL of buffer (No DMSO) Protocol (IC50 and Ki determination)
The protocol is essentially the same as above except that the compound is added in duplicates at the following final concentrations: 0.01, 0.03, 0.1, 0.3, 1, 3, 10 μM (All dilutions carried out manually). For every assay, whether single point or IC50 determination, a standard compound is used to derive IC50 for comparison. From the IC50 value, the Ki can be calculated using the following formula: Ki=IC50/(1+[Substrate]/Km).

Row | Ki [nM] | Structure (SMILES)
1 | 17 | COCCn1cc(C(=O)N2CCC(c3cc(CN)ccc3F)CC2)c2c(-c3cncnc3)cccc21 [Example 61, [4-(5-Aminomethyl-2-fluoro-phenyl)-piperidin-1-yl]-[1-(2-methoxy-ethyl)-4-pyrimidin-5-yl-1H-indol-3-yl]-methanone dihydrochloride]
2 | 22 | COCCn1cc(C(=O)N2CCC(c3cc(CN)ccc3F)CC2)c2c(-c3cncc(F)c3)cccc21 [Example 84, [4-(5-Aminomethyl-2-fluoro-phenyl)-piperidin-1-yl]-[4-(5-fluoro-pyridin-3-yl)-1-(2-methoxy-ethyl)-1H-indol-3-yl]-methanone dihydrochloride]
3 | 142 | COCCn1cc(C(=O)N2CCC(c3cc(CN)ccc3F)CC2)c2c(C(=O)O)cccc21 [Example 109, 3-[4-(5-Aminomethyl-2-fluoro-phenyl)-piperidine-1-carbonyl]-1-(2-methoxy-ethyl)-1H-indole-4-carboxylic acid trifluoroacetate]
4 | 75 | Cc1cccc2c(C(=O)N3CCC(c4cc(CN)ccc4F)CC3)cn(CCN3CCCC3)c12 [Example 13, [4-(5-Aminomethyl-2-fluoro-phenyl)-piperidin-1-yl]-[7-methyl-1-(2-pyrrolidin-1-yl-ethyl)-1H-indol-3-yl]-methanone dihydrochloride]

Same assay, conditions: Tryptase Ki (nM), Ki calculated from IC50: Ki=IC50/(1+[Substrate]/Km); 0.5 mM substrate, room temperature

Row | Structure (SMILES) | Ki [nM]
5 | Cc1cccc2c(C(=O)N3CCC(c4cc(CN)ccc4F)CC3)cn(CCOC(F)(F)F)c12 [Example 88, hydrochloride] | 239
6 | COCCn1cc(C(=O)N2CCC(c3ccc(F)c(CN)c3)CC2)c2cccc(C)c21 [Example 112, [4-(3-Aminomethyl-4-fluoro-phenyl)-piperidin-1-yl]-[1-(2-methoxy-ethyl)-7-methyl-1H-indol-3-yl]-methanone hydrochloride] | 998
7 | COCCn1cc(C(=O)N2CCC(c3cc(CN)ccc3F)CC2)c2c(Br)cccc21 [Example 48, [4-(5-Aminomethyl-2-fluoro-phenyl)-piperidin-1-yl]-[4-bromo-1-(2-methoxy-ethyl)-1H-indol-3-yl]-methanone hydrochloride] | 125
8 | CN1CCCCC1CCn1cc(C(=O)N2CCC(c3cc(CN)ccc3F)CC2)c2ccccc21 (stereo not shown) [Example 30, [4-(5-Aminomethyl-2-fluoro-phenyl)-piperidin-1-yl]-{1-[2-(1-methyl-piperidin-2-yl)-ethyl]-1H-indol-3-yl}-methanone dihydrochloride] | 50
9 | COCCn1cc(C(=O)N2CCC(c3cc(CN)ccc3F)CC2)c2c(NC(=O)C3CCOCC3)cccc21 [Example 95, Tetrahydro-pyran-4-carboxylic acid [3-[4-(5-aminomethyl-2-fluoro-phenyl)-piperidine-1-carbonyl]-1-(2-methoxy-ethyl)-1H-indol-4-yl]-amide hydrochloride] | 44
10 | COCCn1cc(C(=O)N2CCC(c3cc(CN)ccc3F)CC2)c2c(-c3cc(Cl)cc(Cl)c3)cccc21 [Example 66, 4-(5-Aminomethyl-2-fluoro-phenyl)-piperidin-1-yl]-[4-(3,5-dichloro-phenyl)-1-(2-methoxy-ethyl)-1H-indol-3-yl]-methanone hydrochloride] | 164
11 | COCCn1cc(C(=O)N2CCC(c3cc(CN)ccc3F)CC2)c2c(NC(=O)c3cnco3)cccc21 [Example 124, Oxazole-5-carboxylic acid [3-[4-(5-aminomethyl-2-fluoro-phenyl)-piperidine-1-carbonyl]-1-(2-methoxy-ethyl)-1H-indol-4-yl]-amide hydrochloride] | 8
12 | COCCn1cc(C(=O)N2CCC(c3cc(CN)ccc3OCC(=O)N(C)C)CC2)c2cccc(C)c21 [Example 25, 2-(4-Aminomethyl-2-{1-[1-(2-methoxy-ethyl)-7-methyl-1H-indole-3-carbonyl]-piperidin-4-yl}-phenoxy)-N,N-dimethyl-acetamide hydrochloride] | 672
13 | CCOc1cccc2c1c(C(=O)N1CCC(c3cc(CN)ccc3F)CC1)cn2CCOC [Example 57, [4-(5-Aminomethyl-2-fluoro-phenyl)-piperidin-1-yl]-[4-ethoxy-1-(2-methoxy-ethyl)-1H-indol-3-yl]-methanone hydrochloride] | 54
14 | CNC(=O)COc1ccc(CN)cc1C1CCN(C(=O)c2cn(CCOC)c3c(C)cccc23)CC1 [Example 26, 2-(4-Aminomethyl-2-{1-[1-(2-methoxy-ethyl)-7-methyl-1H-indole-3-carbonyl]-piperidin-4-yl}-phenoxy)-N-methyl-acetamide hydrochloride] | 306
15 | CNc1cccc2c1c(C(=O)N1CCC(c3cc(CN)ccc3F)CC1)cn2CCOC [Example 76, [4-(5-Aminomethyl-2-fluoro-phenyl)-piperidin-1-yl]-[4-methylamino-1-(2-methoxy-ethyl)-1H-indol-3-yl]-methanone hydrochloride] | 211
16 | COCCn1cc(C(=O)N2CCC(c3cc(CN)ccc3F)CC2)c2cccc(OC(F)F)c21 [Example 14, [4-(5-Aminomethyl-2-fluoro-phenyl)-piperidin-1-yl]-[7-difluoromethoxy-1-(2-methoxy-ethyl)-1H-indol-3-yl]-methanone hydrochloride] | 83
17 | NCc1ccc(F)c(C2CCN(C(=O)c3cn(CCOC(F)(F)F)c4c(F)cccc34)CC2)c1 [Example 86, [4-(5-Aminomethyl-2-fluoro-phenyl)-piperidin-1-yl]-[7-fluoro-1-(2-trifluoromethoxy-ethyl)-1H-indol-3-yl]-methanone hydrochloride] | 80
18 | Cc1cccc2c(C(=O)N3CCC(c4cc(CN)ccc4F)CC3)cn(CCCc3ccccc3)c12 [Example 4, [4-(5-Aminomethyl-2-fluoro-phenyl)-piperidin-1-yl]-[7-methyl-1-(3-phenyl-propyl)-1H-indol-3-yl]-methanone hydrochloride] | 1300
19 | COCCn1cc(C(=O)N2CCC(c3cc(CN)ccc3F)CC2)c2cccc(OC(F)(F)F)c21 [Example 1, [4-(5-Aminomethyl-2-fluoro-phenyl)-piperidin-1-yl]-[1-(2-methoxy-ethyl)-7-trifluoromethoxy-1H-indol-3-yl]-methanone hydrochloride] | 47
20 | COCCn1cc(C(=O)N2CCC(c3ccc(Cl)c(CN)c3)CC2)c2cccc(C)c21 [Example 118, [4-(3-Aminomethyl-4-chloro-phenyl)-piperidin-1-yl]-[1-(2-methoxy-ethyl)-7-methyl-1H-indol-3-yl]-methanone hydrochloride] | 832
21 | CCCCn1cc(C(=O)N2CCC(c3cc(CN)ccc3F)CC2)c2cccc(OC(F)(F)F)c21 [Example 43, [4-(5-Aminomethyl-2-fluoro-phenyl)-piperidin-1-yl]-(1-butyl-7-trifluoromethoxy-1H-indol-3-yl)-methanone hydrochloride] | 850
22 | COCCn1cc(C(=O)N2CCC(c3cc(CN)ccc3F)CC2)c2c(CCC(C)(C)O)cccc21 [Example 55, [4-(5-Aminomethyl-2-fluoro-phenyl)-piperidin-1-yl]-[4-(3-hydroxy-3-methyl-butyl)-1-(2-methoxy-ethyl)-1H-indol-3-yl]-methanone hydrochloride] | 72
23 | COCCn1cc(C(=O)N2CCC(c3cc(CN)ccc3F)CC2)c2c(NC(=O)N(C)C)cccc21 [Example 100, 3-[3-[4-(5-Aminomethyl-2-fluoro-phenyl)-piperidine-1-carbonyl]-1-(2-methoxy-ethyl)-1H-indol-4-yl]-1,1-dimethyl-urea hydrorchloride] | 17
24 | NCc1ccc(F)c(C2CCN(C(=O)c3cn(CCOC(F)(F)F)c4cccc(-c5cncnc5)c34)CC2)c1 [Example 92, [4-(5-Aminomethyl-2-fluoro-phenyl)-piperidin-1-yl]-[4-pyrimidin-5-yl-1-(2-trifluoromethoxy-ethyl)-1H-indol-3-yl]-methanone dihydrochloride] | 90
25 | COCCn1cc(C(=O)N2CCC(c3cc(CN)ccc3F)CC2)c2c(NC(=O)c3ccno3)cccc21 [Example 103, Isoxazole-5-carboxylic acid [3-[4-(5-aminomethyl-2-fluoro-phenyl)-piperidine-1-carbonyl]-1-(2-methoxy-ethyl)-1H-indol-4-yl]-amide hydrochloride] | 41
26 | COCCn1cc(C(=O)N2CCC(c3cc(CN)ccc3F)CC2)c2c(NS(=O)(=O)c3cn(C)cn3)cccc21 [Example 105, 1-Methyl-1H-imidazole-4-sulfonic acid [3-[4-(5-aminomethyl-2-fluoro-phenyl)-piperidine-1-carbonyl]-1-(2-methoxy-ethyl)-1H-indol-4-yl]-amide hydrochloride] | 100

Same assay, conditions: Tryptase Ki (nM), additional value in parentheses tagged "719D" (code not explained)

Row | Structure (SMILES) | Ki [nM]
27 | COCCn1cc(C(=O)N2CCC(c3cc(CN)ccc3F)CC2)c2c(NC(=O)C3CCOCC3)cccc21 [Example 95, Tetrahydro-pyran-4-carboxylic acid [3-[4-(5-aminomethyl-2-fluoro-phenyl)-piperidine-1-carbonyl]-1-(2-methoxy-ethyl)-1H-indol-4-yl]-amide hydrochloride] | 47

Same assay, conditions: Tryptase Ki (nM), additional value in parentheses tagged "8923" (code not explained)

Row | Structure (SMILES) | Ki [nM]
28 | COCCn1cc(C(=O)N2CCC(c3cc(CN)ccc3F)CC2)c2c(NC(=O)C3CCOCC3)cccc21 [Example 95, Tetrahydro-pyran-4-carboxylic acid [3-[4-(5-aminomethyl-2-fluoro-phenyl)-piperidine-1-carbonyl]-1-(2-methoxy-ethyl)-1H-indol-4-yl]-amide hydrochloride] | 15
